{"source": "patent US20200060273A1", "about": "“FUNGICIDAL COMPOSITIONS” (Novus International, Inc., priority 2018, published 2020)", "key": {"[1]": {"tested_on": "Fusarium graminearum", "assay_type": "cell-based"}, "[2]": {"tested_on": "Podosphaera xanthii (powdery mildew)", "assay": "in vitro leaf disc assay on cucumber cotyledons", "assay_type": "cell-based"}, "[3]": {"tested_on": "Botrytis cinerea", "assay": "in vitro mycelial disc assay", "assay_type": "cell-based"}, "[4]": {"tested_on": "cucumber", "conditions": "in vivo", "description": "(§1) These experiments were carried out to test the phytotoxic effects of HMTBA on cucurbit (cucumber), strawberry, pepper, and lettuce target crops. Young plants of Jackson Classic variety cucumber, Tango variety head lettuce, Compadre variety bell pepper, and Festival variety strawberry were grown under standard greenhouse conditions. One week-post planting cucumber and pepper plants, three week old lettuce, and four month old strawberry plants were treated.\n(§2) Foliar sprays for HMTBA dilutions at 0.01, 0.1, 0.2 and 1.0% ai/v were applied twice per week for two weeks (total of four applications).\n(§3) Height and width for each plant was measured (centimeters) for indication of growth changes between treated and untreated plants. Phytotoxicity ratings were taken weekly on a 0-10 scale, where 0 indicates no crop injury and 10 is damage (yellowing, scarring, wilting, necrosis, death) to the total plant from the treatment.\n(§4) Area Under Disease Progress Curve (AUDPC), Abbot's formulation for percent control and all statistics were analyzed using ANOVA mean comparison with LSD test and a=0.05. Bartlett's test for homogeneity of variances was used to determine the need for data transformations. Letters in tables represent means separation significant and 0.05."}, "[5]": {"tested_on": "lettuce", "conditions": "in vivo", "description": "as §1, §2, §3, §4"}, "[6]": {"tested_on": "pepper", "conditions": "in vivo", "description": "as §1, §2, §3, §4"}, "[7]": {"tested_on": "strawberry", "conditions": "in vivo", "description": "as §1, §2, §3, §4"}}, "note": "Like-named read-outs stand apart in the source and are kept apart here."}
{"smiles": "CC1(C)CCC(Cc2ccc(Cl)cc2)C1(O)Cn1cncn1", "note": "(stereo not shown) [Metconazole, metconazole]", "values": [{"measurement": "F. graminiearum % Control", "setting": "[1]; Metconazole 0.001% ai/v", "result": 27.80, "unit": "% cde"}, {"measurement": "Spore Diameter (cm)", "setting": "[1]; Metconazole 0.001% ai/v", "result": 1.00, "unit": "b cm"}, {"measurement": "F. graminiearum % Control", "setting": "[1]; Metconazole 0.01% ai/v", "result": 66.98, "unit": "% ab"}, {"measurement": "Spore Diameter (cm)", "setting": "[1]; Metconazole 0.01% ai/v", "result": 0.50, "unit": "cd cm"}, {"measurement": "F. graminiearum % Control", "setting": "[1]; Metconazole 1% ai/v", "result": 93.08, "unit": "% a"}, {"measurement": "Spore Diameter (cm)", "setting": "[1]; Metconazole 1% ai/v", "result": 0.17, "unit": "cm·days"}]}
{"smiles": "CSCCC(O)C(=O)O", "note": "(stereo not shown) [HMTBA, 2-hydroxy-4(methylthio)butanoic acid]", "values": [{"measurement": "P. xanthii % Control", "setting": "[2]; 0.1% HMTBA", "result": 4.46, "unit": "% ef"}, {"measurement": "Pest Severity Score 0-4", "setting": "[2]; 0.1% HMTBA", "result": 3.17, "unit": "a"}, {"measurement": "B. cinerea Mycelial Growth % Control", "setting": "[3]; 0.1% HMTBA", "result": 10.08, "unit": "% de"}, {"measurement": "B. cinerea Mycelial Growth Diameter (cm)", "setting": "[3]; 0.1% HMTBA", "result": 2.03, "unit": "ab cm"}, {"measurement": "F. graminiearum % Control", "setting": "[1]; 0.1% HMTBA", "result": 4.93, "unit": "% ef"}, {"measurement": "Spore Diameter (cm)", "setting": "[1]; 0.1% HMTBA", "result": 1.47, "unit": "a cm"}, {"measurement": "phytotoxic effects", "setting": "[4]", "result": "no phytotoxic effects were recorded"}, {"measurement": "plant growth (height and width)", "setting": "[4]", "result": "unchanged from the untreated check"}, {"measurement": "phytotoxic effects", "setting": "[5]", "result": "no phytotoxic effects were recorded"}, {"measurement": "plant growth (height and width)", "setting": "[5]", "result": "unchanged from the untreated check"}, {"measurement": "Pepper Phytotoxicity Rating (0-10)", "setting": "[6]; Compadre variety, pepper", "result": 0.0, "unit": "a"}, {"measurement": "phytotoxic effects", "setting": "[6]", "result": "no phytotoxic effects were recorded"}, {"measurement": "plant growth (height and width)", "setting": "[6]", "result": "unchanged from the untreated check"}, {"measurement": "Strawberry Phytotoxicity Rating (0-10)", "setting": "[7]; Festival variety, strawberry", "result": 0.0, "unit": "a"}, {"measurement": "phytotoxic effects", "setting": "[7]", "result": "no phytotoxic effects were recorded"}, {"measurement": "plant growth (height and width)", "setting": "[7]", "result": "unchanged from the untreated check"}]}
{"smiles": "O=C1C2CC=CCC2C(=O)N1SC(Cl)(Cl)Cl", "note": "(stereo not shown) [Captan, captan]", "values": [{"measurement": "B. cinerea Mycelial Growth % Control", "setting": "[3]; Captan 0.001% ai/v", "result": 21.05, "unit": "% cd"}, {"measurement": "B. cinerea Mycelial Growth Diameter (cm)", "setting": "[3]; Captan 0.001% ai/v", "result": 1.68, "unit": "bc cm"}, {"measurement": "B. cinerea Mycelial Growth % Control", "setting": "[3]; Captan 0.01% ai/v", "result": 53.68, "unit": "% b"}, {"measurement": "B. cinerea Mycelial Growth Diameter (cm)", "setting": "[3]; Captan 0.01% ai/v", "result": 0.97, "unit": "cm·days"}, {"measurement": "B. cinerea Mycelial Growth % Control", "setting": "[3]; Captan 1% ai/v", "result": 96.81, "unit": "% a"}, {"measurement": "B. cinerea Mycelial Growth Diameter (cm)", "setting": "[3]; Captan 1% ai/v", "result": 0.07, "unit": "e cm"}]}
{"smiles": "CO/C=C(/C(=O)OC)c1ccccc1Oc1cc(Oc2ccccc2C#N)ncn1", "note": "[Azoxystrobin, azoxystrobin]", "values": [{"measurement": "P. xanthii % Control", "setting": "[2]; Azoxystrobin 0.00001% ai/v", "result": 17.66, "unit": "% de"}, {"measurement": "Pest Severity Score 0-4", "setting": "[2]; Azoxystrobin 0.00001% ai/v", "result": 2.67, "unit": "ab"}, {"measurement": "P. xanthii % Control", "setting": "[2]; Azoxystrobin 0.0001% ai/v", "result": 44.23, "unit": "% c"}, {"measurement": "Pest Severity Score 0-4", "setting": "[2]; Azoxystrobin 0.0001% ai/v", "result": 1.75, "unit": "c"}, {"measurement": "P. xanthii % Control", "setting": "[2]; Azoxystrobin 0.1% ai/v", "result": 97.62, "unit": "% a"}, {"measurement": "Pest Severity Score 0-4", "setting": "[2]; Azoxystrobin 0.1% ai/v", "result": 0.08, "unit": "e"}]}
